Measurements from patent US20240165150A1, “COMBINATION FOR TREATMENT OF THROMBOINFLAMMATION” (TX MEDIC AB, priority 2021, published 2024).

Columns and labels:
Assay type in all cases: cell-based
human whole blood [1] = experiment: Flow cytometry analysis of blood from blood loops; details: 1 hour
Method: (§1) Materials and Methods Dextran sulfate (IBsolvMIR®, Tikomed AB, Viken, Sweden, WO 2016/076780), heparin (Heparin LEO®, LEO Pharma, cat. No. 585679) and WI-38 cells (American Type Culture Collection (ATCC)) were administered to blood loops as shown in Table 1. Vehicle was an aqueous 0.9% NaCl solution. Each loop contained in total 2 ml of freshly taken human whole blood from three blood donors. Reagents were added to the loops according to Table 1 and the loops were set to rotate at 37° C. Blood samples were taken at the zero, 15 min, 1 hour and 4 hour time points.
Fresh blood was collected and immediately mixed with ethylenediaminetetraacetic acid (EDTA) (zero time point samples) or added to loops followed by sampling and mixing with EDTA at the 1 hour time point. Data was analyzed using flow cytometry.

human whole blood [2] = experiment: Complement split products C3a and C5a by ELISA in blood loop system
Method: as §1
Complement analysis Complement split product C3a and C5a concentrations were measured by ELISA according to the manufacturer's instructions (RayBio® Human C3a and C5a ELISA Kit for serum, plasma, and cell culture supernatants by RayBiotech) at the zero, 15 min and 1 hour time points.

human whole blood [3] = experiment: Coagulation (blood clot size) and hemolysis in IBMIR blood loop system
Method: as §1
Clot scale: 1=Small clot observed (<2 mm), 2=Medium-sized clot observed (2-5 mm), 3=Large clot observed (>5 mm), * Clot removed from loop (not noted at 4 h when all blood was removed from loop), n.s.=no sample. Hemolysis: +=hemolysis observed in blood loop.

human whole blood [4] = experiment: Cytokine analysis by electrochemiluminescence in blood loop system
Method: as §1
Blood was extracted from loops at the zero and 4 hour time points and cytokines were analyzed by electrochemiluminescence (ECL) in multiplex mode using MESO QuickPlex SQ 120 (Mesoscale Discovery).

human whole blood [5] = experiment: Hematology analysis (cell counts) in IBMIR blood loop system; details: WI-38 cells 1 × 10^5/2 ml, 1 hour, IBsolvMIR 0.2 mg/ml, heparin 0, 0.2 or 0.5 U/ml
Method: as §1
Blood samples were extracted from loops at the zero and 1 hour time points and platelets, red blood cells and white blood cells were automatically counted using a Sysmex XN-L 350 Hematology Analyzer.

[6] = agent alone, WI-38 cells, listed as Dextran sulfate
[7] = vs corresponding WI-38 treated without IBsolvMIR
[8] = WI-38-treated loops, three donors
[9] = heparin 0.2 or 0.5 U/ml combined with IBsolvMIR 0.2 mg/ml, WI-38 cells
[10] = vehicle at 0.5 U/ml heparin, donors D2 and D3, 4 hour

Dextran sulfate [IBsolvMIR®]
Activation of granulocytes (CD66b+) (human whole blood [1]; WI-38 cells): overall decreased activation profile
Activation of monocytes (CD14+) (human whole blood [1]; WI-38 cells): overall decreased activation profile
Aggregation of platelets (decrease in proportion of single platelets) (human whole blood [1]; WI-38 cells): entirely revoked
B cell count (WI-38 dependent decrease) (human whole blood [1]; WI-38 cells): entirely reversed up to vehicle level
Frequency of granulocytes (human whole blood [1]; WI-38 cells): increased frequency
Frequency of monocytes (human whole blood [1]; WI-38 cells): increased frequency
TF positive cell counts (human whole blood [1]; WI-38 treated groups with vs without IBsolvMIR): about ten-fold
C5b-9 formation on platelets (proportion of C5b-9 positive platelets) (human whole blood [1]; agent alone, WI-38 cells): partly reverted
Platelet binding to WI-38 cells (cell transplant) (human whole blood [1]; agent alone, WI-38 cells): partly reverted
Proportion of platelets bound to granulocytes (human whole blood [1]; agent alone, WI-38 cells): capable of reducing
Proportion of platelets bound to monocytes (human whole blood [1]; agent alone, WI-38 cells): capable of reducing
C5b-9 formation on platelets (proportion of C5b-9 positive platelets) (human whole blood [1]; [6]): capable of reducing
Platelet binding to WI-38 cells (cell transplant) (human whole blood [1]; [6]): capable of reducing
Complement activation (C5b-9) on TF positive cells (human whole blood [1]; vs WI-38 alone): lower
Frequency of apoptotic (annexin +) TF+ cells (human whole blood [1]; [7]): lower
Frequency of dead (annexin + and/or viability dye +) TF+ cells (human whole blood [1]; [7]): lower
C3a increase in WI-38 treated groups (human whole blood [2]; 15 min time point): entirely blocked
C5a vs corresponding treatment without IBsolvMIR (human whole blood [2]; 1 hour time point): lower in almost every donor in every group
C3a vs corresponding treatment without IBsolvMIR (human whole blood [2]; no heparin, 0.2 and 0.5 U/ml heparin, with and without WI-38 cells, 15 min and 1 hour): decreased C3a
Clotting, loops without WI-38 cells (human whole blood [3]; IBsolvMIR alone loops, all donors, 15 min to 4 hours): No clotting was observed
Clotting at 15 minutes (human whole blood [3]; [8]): no clotting was observed
Clotting at one hour (human whole blood [3]; [8]): medium-sized clots were observed in two WI-38+IBsolvMIR® loops
IL-6 cytokine release (human whole blood [4]; 4 hour time point): ambiguous
MCP-1 levels (human whole blood [4]; IBsolvMIR alone groups vs corresponding vehicle, 4 hour): higher than corresponding vehicle
MCP-1 levels (human whole blood [4]; WI-38 cells with IBsolvMIR vs corresponding WI-38 alone group, 4 hour): slightly increased levels of MCP-1
IL-8 release (human whole blood [4]; vehicle and WI-38 cell-induced, 4 hour): clear IBsolvMIR® dependent reduction
WBC counts (WI-38 induced decrease) (human whole blood [5]): completely rescued the WBC decrease
WBC counts (WI-38 induced decrease) (human whole blood [5]; listed as dextran sulfate): capable of restoring WBC counts

heparin [reference compound]
C5b-9 formation on platelets (proportion of C5b-9 positive platelets) (human whole blood [1]; agent alone, WI-38 cells): did not have any effects
Platelet binding to WI-38 cells (cell transplant) (human whole blood [1]; agent alone, WI-38 cells): did not have any effect at all
Proportion of platelets bound to granulocytes (human whole blood [1]; agent alone, WI-38 cells): did not have any effect at all
Proportion of platelets bound to monocytes (human whole blood [1]; agent alone, WI-38 cells): did not have any effect at all
C5b-9 formation on platelets (proportion of C5b-9 positive platelets) (human whole blood [1]; [9]): clear concentration-dependent effect
Platelet binding to WI-38 cells (cell transplant) (human whole blood [1]; [9]): potentiated the effects of IBsolvMIR®
C5b-9 formation on platelets (proportion of C5b-9 positive platelets) (human whole blood [1]; heparin 0.2 or 0.5 U/ml combined with IBsolvMIR 0.2 mg/ml, WI-38 cells, listed as Heparin): potentiated the effects of IBsolvMIR®
IL-6 response (human whole blood [4]; [10]): > 100 fold
TNF-α release (human whole blood [4]; [10]): dramatic elevated vehicle response
WBC counts (WI-38 induced decrease) (human whole blood [5]): does not affect WBC counts
